Measurements from patent US20250145715A1, “B7-H3 TARGETING FUSION PROTEINS AND METHODS OF USE THEREOF” (GT Biopharma, Inc., priority 2021, published 2025).

Tests used:
Type in all cases: cell-based, human
[1] = tested on: U266 cells; assay: IncuCyte Zoom NK cell killing of U266; conditions: E:T 2:1 and 4:1
Description: (§1) FIGS. 7A-7B illustrate the ability of peripheral blood NK cells with or without B7-H3-TriKE to kill myeloma cells in live imaging IncuCyte Zoom assays. FIG. 7A is a graph showing the effects with effector:target (E:T) ratios of 2:1 and 4:1 on MM1S cells. FIG. 7B is a graph showing the effects with effector:target (E:T) ratios of 2:1 and 4:1 on U266 cells.
as §1, with “8A-8D” for “7A-7B”, “8A is a graph showing the effects with effector:target (E:T) ratios of 2:1 and 4:1 on H929 cells. FIG. 8B” for “7A”, “8C is a graph showing the effects with effector:target (E:T) ratios of 2:1 and 4:1 on RPMI-8226 cells. FIG. 8D” for “7B”
FIGS. 9A-9D illustrate the efficacy of B7-H3-TriKE with the proteasome inhibitor bortezomib (10 nM) and the immunomodulatory drug lenalidomide (5 μM). FIG. 9A is a graph showing the effect of the combination therapy on H929 cells after 48 hours. FIG. 9B is a graph showing the effect of the combination therapy on RPMI-8226 cells after 48 hours. FIG. 9C is a graph showing the effect of the combination therapy on MM1S cells after 48 hours. […]

[2] = tested on: NCI-H322 lung cancer cells; assay: NK cell CD107a / IFNγ flow cytometry against NCI-H322; conditions: normal donor PBMCs, vs controls
Description: FIGS. 24A-24F illustrate that B7-H3 TriKE enhances NK cell function against lung tumor targets. FIG. 24A is a graph showing pooled analysis of proportion of NK cells from healthy donors expressing CD107a+ against A549(N=6) tumor targets. FIG. 24B is a graph showing pooled analysis of proportion of NK cells from healthy donors expressing IFNγ against A549(N=6) tumor targets. FIG. 24C is a graph showing pooled analysis of proportion of NK cells from healthy donors expressing CD107a+ against NCI-H322 (N=5) tumor targets. FIG. 24D is a graph showing pooled analysis of proportion of NK cells from healthy donors expressing IFNγ against NCI-H322 (N=5) tumor targets. FIG. 24E is a graph showing pooled proportion of NK cells from healthy donors (black bars) or lung cancer patients (white bars) expressing CD107a+ against NCI-H460 (N=7). FIG. 24F is a graph showing pooled proportion of NK cells from healthy donors (black bars) or lung cancer patients (white bars) expressing IFNγ against NCI-H460 (N=7). ** p<0.01, *** p<0.001, and **** p<0.0001.
ADCC was measured in a flow cytometry assay by evaluating degranulation via CD107a (lysosomal-associated membrane protein LAMP-1) and intracellular IFNγ production. […] Samples were washed and evaluated in an LSRII flow cytometer (BD Biosciences, San Jose, CA, USA). […]

[3] = tested on: normal immune cells (PBMCs); assay: Background NK cell activity in PBMCs without tumor targets
Procedure: ADCC was measured in a flow cytometry assay by evaluating degranulation via CD107a (lysosomal-associated membrane protein LAMP-1) and intracellular IFNγ production. Upon thawing, normal donor and patient-derived PBMCs or ascites cells were rested overnight (37° C., 5% CO2) in RPMI 1640 media supplemented with 10% fetal calf serum (RPMI-10). The next morning, they were suspended with tumor-target cells or media after washing twice with RPMI-10. Cells were then incubated with TriKEs or controls for 10 min at 37° C. Fluorescein isothiocyate (FITC)-conjugated anti-human CD107a monoclonal antibody (BD Biosciences, San Jose, CA, USA) was then added. […] Samples were washed and evaluated in an LSRII flow cytometer (BD Biosciences, San Jose, CA, USA).
The ability of cam1615B7-H3 TriKE to mediate NK cell activity against ovarian cancer cells was evaluated. […] In order to determine if the individual components of the TriKE could induce NK cell activity on their own, the individual cam16 VHH, IL-15, or anti-B7-H3 scFv components were incubated with PBMCs and OVCAR8 cells and activity was determined. […] NK cell activity, from normal donor PBMCs and ascites from the peritoneal cavity of ovarian cancer patients at the time of surgery, was assessed against MA-148 cells, another high-grade serous ovarian adenocarcinoma cell line (FIGS. 29A-29B and 30G-30H). […]

B7-H3 TriKE: camelid nanobodies targeting CD16 and B7-H3 joined by IL-15 and two linkers; sequence table equates the name with cam1615B7-H3
NK cell killing of U266 [1]: significantly enhanced killing

cam1615B7-H3: second-generation TriKE: humanized camelid anti-CD16 VHH, human wild-type IL-15, anti-B7-H3 mAb 376.96 scFv; SEQ ID NO:1
NK cell activation against NCI-H322 [2]: significantly and robustly improved NK cell activation
background NK cell IFNγ [3]: No background noise
background NK cell degranulation (CD107a) [3]: some background degranulation (CD107a) on NK cells in comparison to controls, but this activity was low
